# EP0719251B1, “BICYCLO (2.2.2) OCTANE DERIVATIVES CHOLECYSTOKININ AND/OR GASTRIN ANTAGONISTS” (JAMES BLACK FOUNDATION LIMITED, priority 1993, dated 1995)
# Columns and labels:
# [1] = target: T1, CCKA (Cavia porcellus, UniProt Q63931); assay: CCKA binding assay in guinea-pig pancreas membranes; conditions: [125I]-CCK8(S) 200pM; for Ki: containing 0.375 µM PD134,308, read-out: CCKA pKi (converted); for CCKA pKi: containing 0.375 µM PD134,308
# T1 construct: The pancreatata were removed from male guinea-pigs (200-300g; Dunkin Hartley); from tissue; host or cells: pancreas membranes of male Dunkin Hartley guinea-pigs
# T1 sequence (Q63931 1-430): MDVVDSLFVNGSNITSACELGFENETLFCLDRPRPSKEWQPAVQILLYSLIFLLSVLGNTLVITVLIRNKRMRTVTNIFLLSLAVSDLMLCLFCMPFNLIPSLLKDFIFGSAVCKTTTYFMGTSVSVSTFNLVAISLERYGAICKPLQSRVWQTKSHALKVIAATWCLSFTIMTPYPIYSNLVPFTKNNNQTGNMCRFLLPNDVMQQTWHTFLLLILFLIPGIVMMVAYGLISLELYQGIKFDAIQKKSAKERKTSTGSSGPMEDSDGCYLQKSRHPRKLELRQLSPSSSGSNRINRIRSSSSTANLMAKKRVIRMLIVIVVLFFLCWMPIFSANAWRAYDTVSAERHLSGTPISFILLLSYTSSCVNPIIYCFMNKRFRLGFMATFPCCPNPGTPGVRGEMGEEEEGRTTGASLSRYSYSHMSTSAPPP
# Experimental: The compounds of the examples were also tested in a CCKÅ binding assay as follows:
# The pancreatata were removed from male guinea-pigs (200-300g; Dunkin Hartley) and placed in ice-cold HEPES buffer (pH 7.2 @ 21 ± 3° ). The pancreatata were homogenised in 40 ml ice-cold HEPES buffer using a polytron (Brinkmann, PT10, setting 10) 4 x 1 second.
# The homogenate was centrifuged at 39,800g for 15 min at 4°. The supernatant was discarded and the pellet re-suspended using a Teflon-in-glass homogeniser in 20 volumes of fresh buffer and recentrifuged as above. The final pellet was re-suspended using a Teflon-in-glass homogeniser to a tissue concentration of 1 mg.ml^-1 (original wet weight), and filtered through 500 µm pore-size Nytex mesh.
# The membranes (400µl; containing 0.375 µM PD134,308) are incubated for 150 minutes at 21 ± 3° in a final volume of 0.5ml with HEPES buffer containing [^125I]-CCK8(S) (50µl; 200pM) and competing compound. Total and non-specific binding of [^125I]-CCK8 (S) are defined using 50µl of buffer and 50µl of 100nM L-364,718 respectively. The assay is terminated by rapid filtration through pre-soaked Whatman GF/B filters using a Brandell Cell Harvester. The filters were washed (3 x 3ml) with ice-cold 50mM Tris HCl (pH 7.4 at 4° ) and bound radioactivity is determined by counting (1 min) in a gamma counter.
# [2] = target: T2, CCKB receptor (Mus musculus, UniProt P56481); assay: radioligand binding assay at the CCKB receptor in mouse cortical membranes; conditions: [125I]-CCK8S 200pM, 150 min at 21 ± 3°C; for Ki: read-out: CCKB pKi (converted)
# T2 construct: The whole brains from male mice (CD1 22-25g; Charles River) were removed; from tissue; host or cells: cerebral cortex membranes of male CD1 mice
# T2 sequence (P56481 1-453): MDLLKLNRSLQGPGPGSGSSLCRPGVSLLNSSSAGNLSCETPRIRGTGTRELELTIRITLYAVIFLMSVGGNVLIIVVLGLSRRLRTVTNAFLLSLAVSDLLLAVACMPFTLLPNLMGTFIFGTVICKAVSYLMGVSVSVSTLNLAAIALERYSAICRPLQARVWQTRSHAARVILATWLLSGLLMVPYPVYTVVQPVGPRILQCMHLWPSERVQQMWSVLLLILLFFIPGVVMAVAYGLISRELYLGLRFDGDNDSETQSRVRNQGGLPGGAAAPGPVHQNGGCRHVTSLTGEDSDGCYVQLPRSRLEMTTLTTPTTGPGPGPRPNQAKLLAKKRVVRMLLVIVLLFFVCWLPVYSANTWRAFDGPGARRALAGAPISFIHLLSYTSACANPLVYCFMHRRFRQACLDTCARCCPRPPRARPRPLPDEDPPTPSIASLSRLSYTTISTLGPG
# Experimental: The compounds of the examples were tested for binding at the CCKB receptor in mouse cortical membranes by means of a radioligand binding assay. The procedure was as follows:
# The whole brains from male mice (CD1 22-25g; Charles River) were removed and placed in ice-cold buffer (pH7.2 @ 21 ± 3°C) of the following composition (mM); 10 HEPES, 130 NaCl, 4.7 KCl, 5 MgCl2, 1 EDTA and containing 0.25g.l^-1 bacitracin. The cortex was dissected, weighed and homogenised in 40ml ice-cold buffer using a Teflon-in-glass homogeniser. The homogenate was centrifuged at 39,800g for 20 min at 4°C, the supernatant discarded and the pellet resuspended by homogenisation in fresh buffer. The homogenate was recentrifuged (39,800g; 20 min @ 4°C) and the final pellet was resuspended in HEPES buffer to give a tissue concentration of 2mg.ml^-1(original wet weight).
# The assay was terminated by rapid filtration through pre-soaked Whatman GF/B filters using a Brandell Cell harvester. The filters were washed (3 x 3ml) with ice-cold 50mM Tris-HCl (pH7.4 @ 4°C) and bound radioactivity determined by counting (1 min.) in a gamma-counter.
# [3] = target: T3, gastrin (Rattus norvegicus, UniProt P30553); assay: gastrin antagonist activity in an immature rat stomach assay; conditions: isolated immature rat stomach, cumulative pentagastrin dose-response curves, acid secretion; read-out: Gastrin pKB (converted)
# T3 construct: The stomach was excised and flushed with ca. 1 ml of unbuffered physiological saline solution; from tissue; host or cells: isolated whole stomach of immature rats (33-50 g, ca. 21 days old)
# T3 sequence (P30553 1-452): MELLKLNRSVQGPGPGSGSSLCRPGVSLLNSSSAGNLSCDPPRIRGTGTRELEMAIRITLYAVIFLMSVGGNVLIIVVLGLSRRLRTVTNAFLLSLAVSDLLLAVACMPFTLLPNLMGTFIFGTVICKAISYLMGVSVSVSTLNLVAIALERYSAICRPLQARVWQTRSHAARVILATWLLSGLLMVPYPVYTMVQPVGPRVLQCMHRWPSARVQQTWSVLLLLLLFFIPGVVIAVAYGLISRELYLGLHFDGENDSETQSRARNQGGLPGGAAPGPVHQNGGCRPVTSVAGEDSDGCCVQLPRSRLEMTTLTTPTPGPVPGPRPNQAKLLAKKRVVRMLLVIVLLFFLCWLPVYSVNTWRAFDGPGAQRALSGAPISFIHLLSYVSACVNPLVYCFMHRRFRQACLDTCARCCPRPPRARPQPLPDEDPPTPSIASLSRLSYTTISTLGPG
# Experimental: The compounds of the examples were also tested for gastrin antagonist activity in an immature rat stomach assay. The procedure was as follows: The oesophagus of immature rats (33-50 g, ca. 21 days old) was ligated at the level of the cardiac sphincter and the duodenal sphincter was cannulated. The stomach was excised and flushed with ca. 1 ml of unbuffered physiological saline solution. The fundus was punctured and cannulated. A further 4-5 ml of unbuffered solution was flushed through the stomach to ensure the preparation was not leaking. […] The stomach was continuously perfused at a rate of 1 ml min^-1 with unbuffered solution gassed with 100% O2 with the perfusate passing over an internally referenced pH-electrode fixed 12 cm above the stomach. After 120 min of stabilisation the drugs were added directly to the serosal solution in the organ bath and after a further 60 min cumulative pentagastrin dose-response curves were started.
compound,measurement,setting,value
"O=C(O)c1cccc(NC(=O)[C@H](Cc2cccs2)NC(=O)C2C3c4ccccc4C(c4ccccc43)C2C(=O)NCC23CC4CC(CC(C4)C2)C3)c1 (single isomer, unassigned) [Example 55, cis-7-(1S-(3-carboxyphenylaminocarbonyl)-2-(2-thiophenyl)ethylaminocarbonyl)-8-(1-adamantanemethylaminocarbonyl)-2,3,5,6-dibenzobicyclo[2.2.2]octane]",Ki,[1],794 nM
same,Ki,[2],6.31 nM
"O=C(O)c1cc(NC(=O)[C@H](Cc2ccccc2)NC(=O)C2C3c4ccccc4C(c4ccccc43)C2C(=O)NCC23CC4CC(CC(C4)C2)C3)cc(C(=O)O)c1 (single isomer, unassigned) [Example 2, cis-7-(1S-(3,5-dicarboxyphenylaminocarbonyl) -2-phenylethylaminocarbonyl)-8-(1-adamantanemethylaminocarbonyl)-2,3,5,6-dibenzobicyclo[2.2.2] octane]",Ki,[1],501 nM
same,Ki,[2],15.8 nM
same,Kb,[3],50.1 nM
"O=C(O)c1cccc(NC(=O)[C@H](Cc2cccs2)NC(=O)C2C3c4ccccc4C(c4ccccc43)C2C(=O)NCC23CC4CC(CC(C4)C2)C3)c1 (single isomer, unassigned) [Example 56]",Ki,[1],1000 nM
same,Ki,[2],25.1 nM
"O=C(O)c1cc(NC(=O)[C@H](Cc2ccccc2)NC(=O)C2C3c4ccccc4C(c4ccccc43)C2C(=O)NCc2ccc(Cl)c(Cl)c2)cc(C(=O)O)c1 (single isomer, unassigned) [Example 34, cis-7-(1S-(3,5-dicarboxyphenylaminocarbonyl) -2-phenylethylaminocarbonyl) -8-(3,4-dichlorophenyl-methylaminocarbonyl) -2,3,5,6-dibenzobicyclo[2.2.2]octane]",Ki,[1],251 nM
same,Ki,[2],39.8 nM
same,Kb,[3],316 nM
"cls-7-(1S-(3,5-dicarboxyphenylaminocarbonyl) -2-phenylethylaminocarbonyl) -8-(2-phenylpropylaminocarbonyl) -2,3,5,6-dibenzobicyclo[2.2.2]octane [Example 54]",CCKA pKi,[1],5.8
same,CCKB pKi,[2],7.5
"O=C(O)c1cc(NC(=O)[C@H](Cc2ccccc2)NC(=O)C2C3c4ccccc4C(c4ccccc43)C2C(=O)NCCc2c[nH]c3ccccc23)cc(C(=O)O)c1 (single isomer, unassigned) [Example 51, cis-7-(1S-(3,5-dicarboxyphenylaminocarbonyl) -2-phenylethylaminocarbonyl)-8-(3-indolylethylaminocarbonyl) -2,3,5,6-dibenzobicyclo [2.2.2]octane]",Ki,[1],1580 nM
same,Ki,[2],79.4 nM
"cis-7-(1S-(3,5-dicarboxyphenylaminocarbonyl) -2-phenylethylaminocarbonyl)-8-(2-thiophenylmethylaminocarbonyl)-2,3,5,6-dibenzobicyclo[2.2.2] octane [Example 52]",CCKA pKi,[1],6.8
same,CCKB pKi,[2],7.3
"O=C(NCC12CC3CC(CC(C3)C1)C2)C1C2c3ccccc3C(c3ccccc32)C1C(=O)N[C@@H](Cc1ccccc1)C(=O)Nc1ccccc1 (single isomer, unassigned) [Example 22, cis-7-(1S-(phenylaminocarbonyl)-2-phenyl-ethylaminocarbonyl)-8-(1-adamantanemethylaminocarbonyl) -2,3,5,6-dibenzobicyclo[2.2.2]octane]",Ki,[1],1260 nM
same,Ki,[2],3980 nM
"O=C(O)c1cc(NC(=O)[C@H](Cc2ccccc2)NC(=O)C2C3c4ccccc4C(c4ccccc43)C2C(=O)NCCc2c[nH]c3ccccc23)cc(C(=O)O)c1 (single isomer, unassigned) [Example 50, cis-7-(1S-(3,5-dicarboxyphenylaminocarbonyl) -2-phenylethylaminocarbonyl)-8-(3-indolylethylaminocarbonyl)-2,3,5,6-dibenzobicyclo[2.2.2] octane]",Ki,[1],398 nM
same,Ki,[2],15.8 nM
"O=C(O)c1cc(NC(=O)[C@H](Cc2ccccc2)NC(=O)C2C3c4ccccc4C(c4ccccc43)C2C(=O)NCc2cccc3ccccc23)cc(C(=O)O)c1 (single isomer, unassigned) [Example 33, cis-7-(1S-(3,5-dicarboxyphenylaminocarbonyl)-2-phenylethylaminocarbonyl)-8-(1-naphthalenemethylaminocarbonyl)-2,3,5,6-dibenzobicyclo[2.2.2]octane]",Ki,[1],1260 nM
same,Ki,[2],316 nM
"O=C(O)c1ccccc1NC(=O)[C@H](Cc1ccccc1)NC(=O)C1C2c3ccccc3C(c3ccccc32)C1C(=O)NCC12CC3CC(CC(C3)C1)C2 (stereo partly drawn) [Example 45, cis-7-(1S-(2-carboxyphenylaminocarbonyl)-2-phenylethylaminocarbonyl)-8-(1-adamantane-methylaminocarbonyl) -2,3,5,6-dibenzobicyclo[2.2.2]octane]",Ki,[1],1260 nM
same,Ki,[2],200 nM
